Reference: the kinase profiling compilation of Christmann-Franck et al. (2016)

Assays:
Assay in all cases: KINOMEscan competition binding
Conditions in all cases: compound 10.0 µM
[1] = molecular target: RIOK1 (human) (UniProt Q9BRS2)
[2] = molecular target: PAK1 (human) (UniProt Q13153)
[3] = molecular target: PRKAA1 (human) (UniProt Q13131)
[4] = molecular target: CAMK2A (human) (UniProt Q9UQM7)
[5] = molecular target: SRPK1 (human) (UniProt Q96SB4)
[6] = molecular target: CSNK2A1 (human) (UniProt P68400)
[7] = molecular target: LIMK2 (human) (UniProt P53671)
[8] = molecular target: CSNK1G2 (human) (UniProt P78368)
[9] = molecular target: CLK1 (human) (UniProt P49759)
[10] = molecular target: MKNK1 (human) (UniProt Q9BUB5)
[11] = molecular target: NLK (human) (UniProt Q9UBE8)
NLK (human), sequence (Q9UBE8 whole entry, looked up): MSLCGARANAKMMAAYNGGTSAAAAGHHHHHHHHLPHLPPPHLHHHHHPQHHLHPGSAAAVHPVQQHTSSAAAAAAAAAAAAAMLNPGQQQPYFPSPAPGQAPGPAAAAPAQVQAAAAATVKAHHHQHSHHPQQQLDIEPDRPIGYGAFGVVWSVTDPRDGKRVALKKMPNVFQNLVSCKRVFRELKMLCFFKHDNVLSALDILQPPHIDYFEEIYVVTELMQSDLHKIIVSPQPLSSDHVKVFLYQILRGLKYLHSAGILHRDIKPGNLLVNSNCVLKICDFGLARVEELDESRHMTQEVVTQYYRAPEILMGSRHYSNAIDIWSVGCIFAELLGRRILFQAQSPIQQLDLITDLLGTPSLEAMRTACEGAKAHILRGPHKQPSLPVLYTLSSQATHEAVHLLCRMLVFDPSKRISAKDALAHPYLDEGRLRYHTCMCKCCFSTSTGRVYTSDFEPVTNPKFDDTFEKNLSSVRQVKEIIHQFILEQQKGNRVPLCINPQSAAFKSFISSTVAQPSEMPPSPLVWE

[12] = molecular target: SIK2 (human) (UniProt Q9H0K1)
SIK2 (human), sequence (Q9H0K1 whole entry, looked up): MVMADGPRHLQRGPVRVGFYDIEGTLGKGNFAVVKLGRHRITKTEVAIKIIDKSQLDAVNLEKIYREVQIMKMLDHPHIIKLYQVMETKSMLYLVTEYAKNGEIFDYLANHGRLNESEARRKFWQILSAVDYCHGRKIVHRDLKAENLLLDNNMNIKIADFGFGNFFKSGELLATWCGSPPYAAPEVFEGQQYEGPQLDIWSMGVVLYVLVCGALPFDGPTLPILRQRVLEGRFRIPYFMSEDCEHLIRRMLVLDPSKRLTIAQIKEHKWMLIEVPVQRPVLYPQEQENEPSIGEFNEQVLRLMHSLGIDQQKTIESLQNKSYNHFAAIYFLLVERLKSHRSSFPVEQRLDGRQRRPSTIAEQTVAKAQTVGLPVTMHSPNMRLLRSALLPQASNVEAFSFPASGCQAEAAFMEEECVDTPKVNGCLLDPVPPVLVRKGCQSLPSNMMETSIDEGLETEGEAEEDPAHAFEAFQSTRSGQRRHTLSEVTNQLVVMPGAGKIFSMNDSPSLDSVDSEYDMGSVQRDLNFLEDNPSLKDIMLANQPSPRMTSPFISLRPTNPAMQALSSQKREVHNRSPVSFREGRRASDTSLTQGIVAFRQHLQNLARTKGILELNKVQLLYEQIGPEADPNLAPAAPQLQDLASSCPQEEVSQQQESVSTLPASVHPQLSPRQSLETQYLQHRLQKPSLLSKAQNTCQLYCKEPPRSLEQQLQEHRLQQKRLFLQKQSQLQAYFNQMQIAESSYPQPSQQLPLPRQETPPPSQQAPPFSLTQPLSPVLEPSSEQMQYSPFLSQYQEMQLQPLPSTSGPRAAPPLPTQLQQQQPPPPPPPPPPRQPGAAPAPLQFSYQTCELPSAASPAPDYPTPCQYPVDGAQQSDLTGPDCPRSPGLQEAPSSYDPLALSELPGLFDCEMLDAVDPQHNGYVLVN

[13] = molecular target: MYLK (human) (UniProt Q15746)
[14] = molecular target: FLT4 (human) (UniProt P35916)
FLT4 (human), sequence (P35916 whole entry, looked up): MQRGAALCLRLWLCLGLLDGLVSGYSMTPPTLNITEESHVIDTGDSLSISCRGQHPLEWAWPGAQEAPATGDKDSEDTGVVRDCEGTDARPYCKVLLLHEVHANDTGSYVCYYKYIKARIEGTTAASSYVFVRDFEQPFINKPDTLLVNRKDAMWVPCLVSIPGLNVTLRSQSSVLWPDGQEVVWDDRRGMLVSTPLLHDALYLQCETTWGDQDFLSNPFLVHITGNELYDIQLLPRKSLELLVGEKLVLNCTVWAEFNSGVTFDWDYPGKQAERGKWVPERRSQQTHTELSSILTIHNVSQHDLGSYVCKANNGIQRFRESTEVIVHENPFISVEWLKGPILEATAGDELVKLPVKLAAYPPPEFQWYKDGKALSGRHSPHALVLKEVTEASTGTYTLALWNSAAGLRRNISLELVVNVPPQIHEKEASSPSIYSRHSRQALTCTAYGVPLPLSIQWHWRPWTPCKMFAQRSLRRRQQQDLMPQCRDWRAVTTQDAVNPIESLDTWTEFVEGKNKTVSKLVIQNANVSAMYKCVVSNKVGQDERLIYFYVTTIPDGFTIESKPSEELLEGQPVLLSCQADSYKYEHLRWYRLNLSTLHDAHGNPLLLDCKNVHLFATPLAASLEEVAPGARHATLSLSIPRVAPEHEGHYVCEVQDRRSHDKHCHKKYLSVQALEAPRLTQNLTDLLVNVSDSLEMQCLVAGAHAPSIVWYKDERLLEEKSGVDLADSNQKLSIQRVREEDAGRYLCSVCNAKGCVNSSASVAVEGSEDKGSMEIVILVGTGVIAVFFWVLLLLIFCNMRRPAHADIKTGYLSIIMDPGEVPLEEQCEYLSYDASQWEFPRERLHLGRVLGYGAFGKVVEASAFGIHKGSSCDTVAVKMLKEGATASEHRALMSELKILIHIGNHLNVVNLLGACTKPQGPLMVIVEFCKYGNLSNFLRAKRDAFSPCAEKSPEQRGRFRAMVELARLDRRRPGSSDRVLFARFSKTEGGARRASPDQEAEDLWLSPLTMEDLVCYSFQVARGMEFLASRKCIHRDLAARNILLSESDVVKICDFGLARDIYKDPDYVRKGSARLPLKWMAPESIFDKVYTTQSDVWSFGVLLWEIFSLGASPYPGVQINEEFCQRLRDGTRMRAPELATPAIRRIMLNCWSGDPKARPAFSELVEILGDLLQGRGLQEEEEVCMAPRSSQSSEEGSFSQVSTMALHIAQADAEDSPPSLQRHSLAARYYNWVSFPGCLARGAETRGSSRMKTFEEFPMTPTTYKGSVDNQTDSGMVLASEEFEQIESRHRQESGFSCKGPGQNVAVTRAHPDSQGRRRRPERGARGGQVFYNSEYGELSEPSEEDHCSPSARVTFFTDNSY

[15] = molecular target: MAP4K4 (human) (UniProt O95819)
[16] = molecular target: FGR (human) (UniProt P09769)
[17] = molecular target: TNIK (human) (UniProt Q9UKE5)
[18] = molecular target: PRKCH (human) (UniProt P24723)
[19] = molecular target: CSNK1G3 (human) (UniProt Q9Y6M4)
[20] = molecular target: AKT2 (human) (UniProt P31751)
[21] = molecular target: MAPK6 (human) (UniProt Q16659)
[22] = molecular target: MST4 (human) (UniProt Q9P289)
[23] = molecular target: RIPK1 (human) (UniProt Q13546)
[24] = molecular target: PRKCQ (human) (UniProt Q04759)
[25] = molecular target: CDK8 (human) (UniProt P49336)
[26] = molecular target: RPS6KA4 KD2 (human) (UniProt O75676)
RPS6KA4 KD2 (human), sequence (O75676 whole entry, looked up): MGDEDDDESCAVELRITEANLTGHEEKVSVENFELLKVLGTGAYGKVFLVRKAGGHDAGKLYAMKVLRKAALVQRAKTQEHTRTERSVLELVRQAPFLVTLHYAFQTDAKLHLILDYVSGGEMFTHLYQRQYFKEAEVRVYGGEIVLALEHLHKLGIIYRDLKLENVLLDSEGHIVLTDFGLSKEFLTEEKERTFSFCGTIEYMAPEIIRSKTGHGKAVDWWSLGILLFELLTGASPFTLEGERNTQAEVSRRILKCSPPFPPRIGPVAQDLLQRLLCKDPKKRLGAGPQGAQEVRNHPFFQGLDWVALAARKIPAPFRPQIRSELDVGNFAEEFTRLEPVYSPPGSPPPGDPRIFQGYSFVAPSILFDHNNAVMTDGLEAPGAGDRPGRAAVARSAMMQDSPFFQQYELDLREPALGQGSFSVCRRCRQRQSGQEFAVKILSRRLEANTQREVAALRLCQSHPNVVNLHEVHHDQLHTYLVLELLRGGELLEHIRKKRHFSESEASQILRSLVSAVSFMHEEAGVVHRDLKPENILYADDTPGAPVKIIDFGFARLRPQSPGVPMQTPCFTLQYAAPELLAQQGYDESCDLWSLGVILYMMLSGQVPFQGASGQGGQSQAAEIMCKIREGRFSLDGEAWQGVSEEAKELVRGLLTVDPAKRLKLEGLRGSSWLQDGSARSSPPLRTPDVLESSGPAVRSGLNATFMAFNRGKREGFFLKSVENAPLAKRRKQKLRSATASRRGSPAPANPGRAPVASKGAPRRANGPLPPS

[27] = molecular target: CAMK2B (human) (UniProt Q13554)
[28] = molecular target: LATS1 (human) (UniProt O95835)
LATS1 (human), sequence (O95835 whole entry, looked up): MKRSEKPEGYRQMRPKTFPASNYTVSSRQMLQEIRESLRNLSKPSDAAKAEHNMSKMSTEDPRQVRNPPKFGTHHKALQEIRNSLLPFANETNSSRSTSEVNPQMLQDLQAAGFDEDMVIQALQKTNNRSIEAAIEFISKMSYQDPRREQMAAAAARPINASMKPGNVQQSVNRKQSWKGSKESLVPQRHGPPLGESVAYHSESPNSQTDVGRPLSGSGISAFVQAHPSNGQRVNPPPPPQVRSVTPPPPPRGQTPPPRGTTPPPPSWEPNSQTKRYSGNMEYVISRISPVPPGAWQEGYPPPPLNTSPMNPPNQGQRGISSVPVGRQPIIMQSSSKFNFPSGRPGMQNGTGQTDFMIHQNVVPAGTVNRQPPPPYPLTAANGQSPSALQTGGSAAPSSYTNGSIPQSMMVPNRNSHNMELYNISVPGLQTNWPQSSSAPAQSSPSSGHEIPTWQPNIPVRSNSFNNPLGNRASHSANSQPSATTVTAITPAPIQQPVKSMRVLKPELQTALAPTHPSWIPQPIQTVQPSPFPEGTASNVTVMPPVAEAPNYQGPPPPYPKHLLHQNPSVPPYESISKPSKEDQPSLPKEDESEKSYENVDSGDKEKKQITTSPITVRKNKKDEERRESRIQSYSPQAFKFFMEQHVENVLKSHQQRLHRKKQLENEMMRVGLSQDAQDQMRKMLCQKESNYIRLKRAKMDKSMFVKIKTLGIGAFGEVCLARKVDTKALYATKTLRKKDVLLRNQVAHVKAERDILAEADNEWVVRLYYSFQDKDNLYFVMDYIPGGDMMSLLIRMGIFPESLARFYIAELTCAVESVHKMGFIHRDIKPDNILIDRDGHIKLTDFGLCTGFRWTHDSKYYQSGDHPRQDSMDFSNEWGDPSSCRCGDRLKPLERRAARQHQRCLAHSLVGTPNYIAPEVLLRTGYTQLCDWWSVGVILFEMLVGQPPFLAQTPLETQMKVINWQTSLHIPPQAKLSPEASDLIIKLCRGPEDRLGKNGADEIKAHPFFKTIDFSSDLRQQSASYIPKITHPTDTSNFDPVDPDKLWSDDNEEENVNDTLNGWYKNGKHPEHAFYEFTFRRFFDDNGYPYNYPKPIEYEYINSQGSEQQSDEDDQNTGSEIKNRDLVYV

[29] = molecular target: AURKC (human) (UniProt Q9UQB9)
AURKC (human), sequence (Q9UQB9 whole entry, looked up): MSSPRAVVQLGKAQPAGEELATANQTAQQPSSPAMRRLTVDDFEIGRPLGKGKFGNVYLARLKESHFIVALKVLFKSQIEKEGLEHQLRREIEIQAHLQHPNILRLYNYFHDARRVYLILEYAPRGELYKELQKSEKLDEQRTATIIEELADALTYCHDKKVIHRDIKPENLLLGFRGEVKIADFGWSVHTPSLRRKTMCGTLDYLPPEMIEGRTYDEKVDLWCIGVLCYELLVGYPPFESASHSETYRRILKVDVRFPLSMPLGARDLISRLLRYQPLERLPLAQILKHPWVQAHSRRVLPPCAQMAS

[30] = molecular target: PRKD1 (human) (UniProt Q15139)
[31] = molecular target: MELK (human) (UniProt Q14680)
[32] = molecular target: BRSK1 (human) (UniProt Q8TDC3)
[33] = molecular target: NUAK2 (human) (UniProt Q9H093)
[34] = molecular target: CAMK2D (human) (UniProt Q13557)
[35] = molecular target: CDC2L2 (human) (UniProt Q9UQ88)
[36] = molecular target: AKT3 (human) (UniProt Q9Y243)
[37] = molecular target: CDK9 (human) (UniProt P50750)
[38] = molecular target: CSNK2A2 (human) (UniProt P19784)
[39] = molecular target: ERBB2 (human) (UniProt P04626)
[40] = molecular target: STK35 (human) (UniProt Q8TDR2)

Structure (SMILES)	kinase still bound, per cent of control [1]	kinase still bound, per cent of control [2]	kinase still bound, per cent of control [3]	kinase still bound, per cent of control [4]	kinase still bound, per cent of control [5]	kinase still bound, per cent of control [6]	kinase still bound, per cent of control [7]	kinase still bound, per cent of control [9]	kinase still bound, per cent of control [10]	kinase still bound, per cent of control [11]	kinase still bound, per cent of control [12]	kinase still bound, per cent of control [13]	kinase still bound, per cent of control [14]	kinase still bound, per cent of control [15]	kinase still bound, per cent of control [16]	kinase still bound, per cent of control [17]	kinase still bound, per cent of control [18]	kinase still bound, per cent of control [20]	kinase still bound, per cent of control [21]	kinase still bound, per cent of control [22]	other results
O=C(O)c1ccc(Nc2ncc3c(n2)-c2ccc(Cl)cc2C(c2c(F)cccc2F)=NC3)cc1	100%	80%	38%	69%	100%	29%	94%	63%	100%	82%	49%	95%	18%	86%	7.6%	61%	100%	100%	92%	100%	kinase still bound, per cent of control [8]: 66%; kinase still bound, per cent of control [19]: 93%; kinase still bound, per cent of control [23]: 100%; kinase still bound, per cent of control [24]: 98%; kinase still bound, per cent of control [25]: 100%; kinase still bound, per cent of control [26]: 100%; kinase still bound, per cent of control [27]: 71%; kinase still bound, per cent of control [28]: 98%; kinase still bound, per cent of control [29]: 20%; kinase still bound, per cent of control [30]: 92%; kinase still bound, per cent of control [31]: 81%; kinase still bound, per cent of control [32]: 100%; kinase still bound, per cent of control [33]: 85%; kinase still bound, per cent of control [34]: 95%; kinase still bound, per cent of control [35]: 100%; kinase still bound, per cent of control [36]: 100%
CCOc1cc2ncc(C#N)c(Nc3ccc(OCc4ccccn4)c(Cl)c3)c2cc1NC(=O)/C=C/CN(C)C	68%	16%	79%	90%	100%	94%	100%	84%	29%	95%	58%	73%	100%	6.2%	40%	6%	100%	99%	100%	2%	kinase still bound, per cent of control [37]: 94%; kinase still bound, per cent of control [38]: 72%; kinase still bound, per cent of control [39]: 0%; kinase still bound, per cent of control [23]: 100%; kinase still bound, per cent of control [24]: 100%; kinase still bound, per cent of control [25]: 100%; kinase still bound, per cent of control [26]: 94%; kinase still bound, per cent of control [27]: 100%; kinase still bound, per cent of control [28]: 90%; kinase still bound, per cent of control [29]: 95%; kinase still bound, per cent of control [30]: 74%; kinase still bound, per cent of control [31]: 55%; kinase still bound, per cent of control [32]: 95%; kinase still bound, per cent of control [33]: 8.8%; kinase still bound, per cent of control [34]: 100%; kinase still bound, per cent of control [35]: 100%; kinase still bound, per cent of control [36]: 100%
CC[C@@H]1C(=O)N(C)c2cnc(Nc3ccc(C(=O)NC4CCN(C)CC4)cc3OC)nc2N1C1CCCC1	100%	100%	100%	26%	100%	100%	100%	100%	100%	100%	100%	3.6%	100%	100%	100%	100%	100%	100%	100%	100%	kinase still bound, per cent of control [37]: 100%; kinase still bound, per cent of control [38]: 100%; kinase still bound, per cent of control [39]: 100%; kinase still bound, per cent of control [40]: 100%; kinase still bound, per cent of control [23]: 100%; kinase still bound, per cent of control [24]: 100%; kinase still bound, per cent of control [25]: 100%; kinase still bound, per cent of control [26]: 0%; kinase still bound, per cent of control [28]: 100%; kinase still bound, per cent of control [29]: 100%; kinase still bound, per cent of control [30]: 7%; kinase still bound, per cent of control [31]: 29%; kinase still bound, per cent of control [32]: 100%; kinase still bound, per cent of control [33]: 100%; kinase still bound, per cent of control [34]: 100%; kinase still bound, per cent of control [35]: 100%; kinase still bound, per cent of control [36]: 100%
